Series [1] relates to metastatic TNBC. Particulars: in combination with first line docetaxel, metastatic TNBC patients; cited from earlier work.
Series [2] is described as follows: Paclitaxel plasma pharmacokinetics alone and in combination with RO4929097. Particulars: 80 mg/m2 IV.
Series [3] is described as follows: clinical. Particulars: human, in vivo, iv, 80 mg/m2.
The conditions of series [4]: human, in vivo, iv, 80 mg/m2.

Molecules are shown by their SMILES.

With `CCC[C@H](N[C@H]1CCc2cc(F)cc(F)c2C1)C(=O)Nc1cn(C(C)(C)CNCC(C)(C)C)cn1` [PF-03084014], in series [1], the Partial response is given as 16% and the Stable disease is listed as 36%.
The term AUC(0-inf) denotes total exposure, with the tail of the curve extrapolated. Low values mean low exposure, high ones high exposure. By half-life is commonly meant how long it takes for the measured level to halve. Read a high half-life as slow loss. On to `CC(=O)O[C@H]1C(=O)[C@@]2(C)[C@H]([C@H](OC(=O)c3ccccc3)[C@]3(O)C[C@H](OC(=O)[C@H](O)[C@@H](NC(=O)c4ccccc4)c4ccccc4)C(C)=C1C3(C)C)[C@]1(OC(C)=O)CO[C@@H]1C[C@@H]2O` [Paclitaxel, paclitaxel], for which the “Paclitaxel PK alone (day -1) versus in combination with RO4929097 (day 15)” value in series [2] is “No significant differences”. In series [3], this compound gave an AUC(0-inf) of 4800 ± 1170 ng·h/mL and a half-life of 10.3 ± 2.5 h. Further, in series [4], the “AUC INF” value was 4911 ± 1078 ng·h/mL and the Half life came to 11.3 ± 2.5 h.

The values are drawn from publication PMC7955776 (Investigational new drugs, 2020).
